From US9695462B2, “Method for evaluation of drug efficacy of a medicine having a therapeutic or preventive effect against a disease related to EL activity and a method for screening an inhibitor of EL activity” (SHIONOGI & CO., LTD., priority 2012, dated 2017)

Molecular target: T1, mouse EL (Mus musculus, UniProt Q9WVG5)
T1 construct: made in house; host or cells: Freestyle 293F cells (pcDNA-DEST40 vector)
T1 sequence (Q9WVG5 21-500): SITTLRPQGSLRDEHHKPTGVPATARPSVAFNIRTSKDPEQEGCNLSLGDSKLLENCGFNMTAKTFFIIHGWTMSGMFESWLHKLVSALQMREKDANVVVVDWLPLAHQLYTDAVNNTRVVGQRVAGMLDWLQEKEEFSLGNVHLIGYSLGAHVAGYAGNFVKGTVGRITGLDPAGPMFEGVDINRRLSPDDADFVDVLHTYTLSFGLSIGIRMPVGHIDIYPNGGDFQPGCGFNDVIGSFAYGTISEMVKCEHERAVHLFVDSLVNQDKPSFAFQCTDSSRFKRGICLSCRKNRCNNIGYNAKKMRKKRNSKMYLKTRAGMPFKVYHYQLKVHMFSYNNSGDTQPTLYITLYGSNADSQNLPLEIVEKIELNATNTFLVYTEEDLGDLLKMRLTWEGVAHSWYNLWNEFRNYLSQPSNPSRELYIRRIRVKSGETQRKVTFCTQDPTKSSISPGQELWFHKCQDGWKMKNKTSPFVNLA
Experiment: Inhibition of mouse EL activity using phosphatidylinositol-HDL as a substrate (NEFA production)
Format: biochemical
Conditions: 37° C. for 2 hr, FIG. 5
Experimental: Phosphatidylinositol (Avanti Polar Lipids Inc.) in chloroform was collected the necessary amount, which was completely evaporated the solvent to dryness under nitrogen. After addition of PBS, phosphatidylinositol-HDL induced phosphatidylinositol (2.5 mg/ml) into HDL (5 mg/ml) was prepared by mixing phosphatidylinositol vesicle prepared by sonication on ice with human HDL (Athens Research & Technology, Inc.) and incubating at 4° C. for 24 hr. The pcDNA-DEST40 (Invitrogen Corp.) cloned DNA encoding mouse EL was transfected into Freestyle 293F cells and the cells were cultured at 37° C. for 2 days in an atmosphere of 8% CO2. The cells were collected by centrifugation of the culture medium, suspended in Freestyle 293 Expression Medium (Invitrogen Corp.) containing 20 U/ml heparin and incubated at 37° C. for 45 min. After that, the supernatant obtained by removing the cells by centrifugation was used as mouse EL enzyme solution. […] After reaction at 37° C. for 2 hr, the amount of NEFA produced from substrate by EL was measured with NEFA C-test Wako (Wako Pure Chemical Industries, Ltd.) and the amount of NEFA (absorbance) was assumed an index of enzyme activity. The enzyme activity was calculated by subtracting the background value equivalent to the amount of endogenous NEFA without mouse EL enzyme solution from the value measured in enzyme reaction of EL (FIG. 4).

inhibitory activity against mouse EL (inhibition rate): dose-dependent inhibition
Structure (SMILES): CCCCCCCCCCC[C@@H](C[C@@H]1OC(=O)[C@H]1CCCCCC)OC(=O)[C@H](CC(C)C)NC=O [orlistat]
